# Measured values: patent publication US20240382460A1, “Compositions and Methods for Preventing or Improving Premature Skin Aging” (NANJING NUTRABUILDING BIO-TECH CO., LTD., priority 2022, published 2024)
# How the values were obtained:
# [1] = system: normal human dermal fibroblasts (NHDF); assay: Cell viability (WST-8) of UVA-irradiated fibroblasts; format: cell-based; conditions: light or radiation study, irradiated conditions UVA 4 J/cm^2, read-out: Viability (WST-8), % Irradiated control
# Experimental: (§1) The normal human dermal fibroblasts (NHDF) were incubated for 16 days, with ultraviolet light exposure three times a day. For the experimental group the cells were treated using medium containing 0.5, 3, 30 μM of ergothioneine.
# (§2) Deletions in mtDNA were quantified using qPCR. The 522 bp fragment represents the amount of mtDNA with deletions, whereas the 262 bp fragment reflects the quantity of intact mtDNA, Relative intensity (AU) is typically used to describe the intensity of the fluorescent signal, and its magnitude is proportional to the number of fragments measured. And cell activity was analyzed using WST-8.
# [2] = animals and humans, even at high doses; cited from earlier work
# [3] = system: normal human dermal fibroblasts (NHDF); assay: UV-induced mtDNA common deletion (Cdel) in fibroblasts, PCR; format: cell-based; conditions: for reduction in Cdel incidence compared to the irradiated control group: UV-irradiated NHDF; for Nest PCR - deleted mtDNA, % Irradiated control / Nest PCR - deleted mtDNA, Relative Intensity / PCR on mtDNA (262 bp) long fragment, % Irradiated control / PCR on mtDNA (262 bp) long fragment, Relative Intensity: irradiated conditions UVA 4 J/cm^2
# Experimental: as §1, §2
# FIG. 2 depicts the effect of compound ergothioneine on the UV-induced mtDNA common deletion (Cdel) in fibroblasts—migration of PCR products (262 bp fragment=total mtDNA without Cdel; 522 bp fragment=mtDNA with Cdel) on 1.5% agarose gel.
smiles,measurement,setting,value
"C[N+](C)(C)[C@@H](Cc1c[nH]c(=S)[nH]1)C(=O)[O-] [Ergothioneine, ergothioneine]",viability at 0.5 µM,[1]; 0.5 μM,100%
same,viability at 3 µM,[1]; 3 μM,96%
same,viability at 30 µM,[1]; 30 μM,96%
same,toxicity or adverse effects associated with administration,[2],no toxicity or adverse effects
same,reduction in Cdel incidence compared to the irradiated control group,[3]; 0.5 μM,56%
same,"Nest PCR - deleted mtDNA, % Irradiated control",[3]; 0.5 μM,56%
same,"Nest PCR - deleted mtDNA, Relative Intensity",[3]; 0.5 μM,45153 AU
same,"PCR on mtDNA (262 bp) long fragment, % Irradiated control",[3]; 0.5 μM,120%
same,"PCR on mtDNA (262 bp) long fragment, Relative Intensity",[3]; 0.5 μM,663197 AU
same,reduction in Cdel incidence compared to the irradiated control group,[3]; 3 μM,67%
same,"Nest PCR - deleted mtDNA, % Irradiated control",[3]; 3 μM,33%
same,"Nest PCR - deleted mtDNA, Relative Intensity",[3]; 3 μM,26636 AU
same,"PCR on mtDNA (262 bp) long fragment, % Irradiated control",[3]; 3 μM,110%
same,"PCR on mtDNA (262 bp) long fragment, Relative Intensity",[3]; 3 μM,606349 AU
same,reduction in Cdel incidence compared to the irradiated control group,[3]; 30 μM,75%
same,"Nest PCR - deleted mtDNA, % Irradiated control",[3]; 30 μM,25%
same,"Nest PCR - deleted mtDNA, Relative Intensity",[3]; 30 μM,20645 AU
same,"PCR on mtDNA (262 bp) long fragment, % Irradiated control",[3]; 30 μM,118%
same,"PCR on mtDNA (262 bp) long fragment, Relative Intensity",[3]; 30 μM,652512 AU
